Consider two compounds from patent US9540332B2, “Benzimidazole derivatives as selective blockers of persistent sodium current” (Allergan, Inc., priority 2011, dated 2017).

For data set [1], the system named is blue light induced photoreceptor injury. Kind of data set: blue light induced photoreceptor injury (ERG and histology). Type of data set: in vivo, Sprague Dawley rat. The protocol: Exposure to blue light results in a loss of photoreceptor cells in the outer retina (arrows).
Hemotoxylin and Eosin stained retinal sections are imaged and outer nuclear layer (ONL) thickness and cell count is evaluated in 8 consecutive regions on either side of the optic nerve head (ONH) (A). In Sprague Dawley rat the typical ONL thickness and photoreceptor cell counts adjacent to the ONH are approximately 40 microns and 10 cells, respectively (B). The cell counts and thicknesses from a retinal section taken from the vertical meridian reveal that in naïve retinae they are stable from just adjacent to ONH in to the ora serata (C,D).
Rat eyes were cut parallel to the vertical meridian through the optic nerve head and several sections were collected. […] Within each […] region, 3 measurements, […] apart, were conducted, averaged and reported as ONL thickness (um). The number of rod and cone nuclei spanning the outer nuclear layer at each measurement site were counted manually and tabulated as photoreceptor #. For each animal, two to three sections were analyzed and averaged to give a final quantifiable value.

For data set [2], the system named is Experimental Autoimmune Encephalomyelitis (EAE). In words: Experimental Autoimmune Encephalomyelitis (EAE), clinical score and flash VEP. Type of data set: in vivo, rats. The source says: Encephalomyelitis (EAE). (A) Representative flash Visual Evoked Potential (VEP) traces from baseline and following the induction of EAE. Three distinct peaks, N1, P2, N2 are labeled in the traces, with P2 being the most reproducible. Note that following the induction of EAE the latency to the P2 peak is increased. This is associated with a poor visual outcome in Optic Neuritis in humans. […] The maximum clinical score is the score associated with the most severe paralysis each animal experienced during the daily observation period.

Data set [3] relates to seizures induced by a 6 Hz alternating current in mice. Kind of data set: 6 Hz seizure model. Particulars: for Protected/Tested: 6 Hz 32 milliamp; for Protected/Tested / Deaths: 0.50 hr; for Deaths: 6 Hz. Type of data set: in vivo.
In data set [4] the test system is rat cultured hippocampal pyramidal neurons. In words: spontaneous firing of cultured hippocampal neurons, whole cell current clamp. It counts as cell-based. Particulars: 1 μM, FIG. 2. The protocol:
Activity of the compounds on the rate of spontaneous firing of neurons was assessed in hippocampal neurons. Hippocampal cells from P-2 rats were cultured for 10-14 days prior to use. Cells were plated on laminin-coated cover slips that could be transferred to a perfusion chamber for conventional whole cell electrophysiological studies. Conventional whole cell current clamp methods were used to record steady state and spontaneous action potentials. Cells were held at their resting potential (Iclamp=0 pA) and spontaneous action potentials were recorded and followed over time. Healthy cells had low rates of spontaneous firing. Spontaneous firing rate increased with metabolic insults to cells, e.g. Mg^2+-depletion or with aging. Spontaneous firing appeared to occur more often in older cell cultures (10-14 days).
The “current clamp” mode was employed tomeasure frequency of spontaneous discharge and action potential bursting in the absence and presence of compound #3 (1 μM). […] The results of these experiments contribute to the efficacy profile of the compounds of the present invention.

Data set [5] concerns mechanical allodynia produced by spinal nerve ligation. In words: spinal nerve ligation (Chung Model), mechanical allodynia, von Frey hairs. Type of data set: in vivo, rats. The protocol:
To assess the actions of the presently claimed benzimdazole compounds in neuropathic pain their efficacy in reversing the mechanical allodynia produced by spinal nerve ligation (Chung Model) and reducing the thermal hyperalgesia produced by subcutaneous injection of capsaicin was determined.
In the Chung spinal nerve ligation model, rats are anesthetized before surgery. The surgical site is shaved and prepared either with betadine or Novacaine. Incision is made from the thoracic vertebra XIII down toward the sacrum. Muscle tissue is separated from the spinal vertebra (left side) at the L4-S2 levels. The L6 vertebra is located and the transverse process is carefully removed with a small rongeur to expose the L4-L6 spinal nerves. The L5 and L6 spinal nerves are isolated and tightly ligated with 6-0 silk thread. The same procedure is done on the right side as a control, except no ligation of the spinal nerves is performed. […]
Compounds to be tested were prepared as suspension in vehicle containing 2% sodium carboxymethylcellulose (CMC) and 1% Pluronic FI 27 by vigorous homogenization. […] Tactile allodynia was measured prior to and at increments of 15, 30, 60 and 90 minutes after drug administration using von Frey hairs that are a series of fine hairs with incremental differences in stiffness. […] The applied force has been calculated to range from 0.41 to 15.1 grams. […]

For a further data set, the target named is T1, Nav1.3 (Homo sapiens, UniProt Q9NY46).
T1 construct: expressed in transfected cells; host or cells: HEK cells, stably transfected
T1 sequence (Q9NY46 whole entry): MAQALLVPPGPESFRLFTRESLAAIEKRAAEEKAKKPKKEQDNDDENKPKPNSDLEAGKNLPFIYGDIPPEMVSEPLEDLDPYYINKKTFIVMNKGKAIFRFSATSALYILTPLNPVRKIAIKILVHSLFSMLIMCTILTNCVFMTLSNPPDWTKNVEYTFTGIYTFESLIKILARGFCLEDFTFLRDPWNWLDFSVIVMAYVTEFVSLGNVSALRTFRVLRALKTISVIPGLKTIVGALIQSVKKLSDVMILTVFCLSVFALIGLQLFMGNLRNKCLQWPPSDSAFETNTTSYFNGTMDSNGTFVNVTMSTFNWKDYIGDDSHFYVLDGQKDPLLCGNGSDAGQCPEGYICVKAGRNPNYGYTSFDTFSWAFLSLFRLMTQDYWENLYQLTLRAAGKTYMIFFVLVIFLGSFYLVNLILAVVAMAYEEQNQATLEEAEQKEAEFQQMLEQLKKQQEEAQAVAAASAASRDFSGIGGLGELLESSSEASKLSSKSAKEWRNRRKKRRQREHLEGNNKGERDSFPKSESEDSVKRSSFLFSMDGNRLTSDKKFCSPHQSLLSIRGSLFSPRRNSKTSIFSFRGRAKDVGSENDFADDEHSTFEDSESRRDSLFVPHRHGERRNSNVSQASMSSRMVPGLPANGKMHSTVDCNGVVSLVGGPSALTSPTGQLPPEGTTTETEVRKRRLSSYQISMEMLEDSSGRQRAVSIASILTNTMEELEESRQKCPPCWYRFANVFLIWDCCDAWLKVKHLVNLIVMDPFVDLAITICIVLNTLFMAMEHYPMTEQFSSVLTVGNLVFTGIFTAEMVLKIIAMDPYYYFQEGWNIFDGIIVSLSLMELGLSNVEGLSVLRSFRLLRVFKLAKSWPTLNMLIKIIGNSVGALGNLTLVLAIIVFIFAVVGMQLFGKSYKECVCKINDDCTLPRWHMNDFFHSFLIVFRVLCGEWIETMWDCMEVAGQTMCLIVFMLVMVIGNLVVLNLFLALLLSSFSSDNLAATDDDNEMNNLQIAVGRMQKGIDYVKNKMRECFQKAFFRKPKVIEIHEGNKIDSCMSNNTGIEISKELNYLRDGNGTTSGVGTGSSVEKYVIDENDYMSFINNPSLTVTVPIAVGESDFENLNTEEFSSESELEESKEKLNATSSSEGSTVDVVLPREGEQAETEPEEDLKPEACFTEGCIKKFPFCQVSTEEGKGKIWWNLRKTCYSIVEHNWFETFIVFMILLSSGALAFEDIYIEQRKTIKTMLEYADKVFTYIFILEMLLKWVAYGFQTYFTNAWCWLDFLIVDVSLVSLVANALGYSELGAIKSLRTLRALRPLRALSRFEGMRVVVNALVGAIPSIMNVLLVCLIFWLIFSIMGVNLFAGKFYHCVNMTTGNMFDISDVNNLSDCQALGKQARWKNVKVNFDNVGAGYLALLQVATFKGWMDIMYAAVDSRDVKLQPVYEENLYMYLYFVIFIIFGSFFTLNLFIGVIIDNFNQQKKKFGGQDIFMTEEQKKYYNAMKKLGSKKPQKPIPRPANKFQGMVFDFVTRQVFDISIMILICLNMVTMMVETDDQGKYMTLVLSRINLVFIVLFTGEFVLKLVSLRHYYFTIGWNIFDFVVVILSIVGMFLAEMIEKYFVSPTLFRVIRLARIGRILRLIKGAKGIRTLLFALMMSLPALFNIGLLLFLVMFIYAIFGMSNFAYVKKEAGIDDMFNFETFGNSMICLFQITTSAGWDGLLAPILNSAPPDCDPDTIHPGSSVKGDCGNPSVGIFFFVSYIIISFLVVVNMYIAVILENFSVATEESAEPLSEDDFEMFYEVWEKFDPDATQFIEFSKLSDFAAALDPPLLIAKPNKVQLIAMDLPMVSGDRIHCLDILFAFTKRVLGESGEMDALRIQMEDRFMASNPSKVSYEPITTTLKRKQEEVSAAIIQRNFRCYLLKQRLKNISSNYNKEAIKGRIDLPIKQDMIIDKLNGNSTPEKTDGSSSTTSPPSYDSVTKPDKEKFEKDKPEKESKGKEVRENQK
Kind of data set: gigohm-seal manual patch-clamp (MPC) on HEK cells stably transfected with sodium channels. It counts as cell-based. The protocol: Therefore, the efficacy and selectivity of the identified persistent current antagonists were verified using conventional gigohm-seal manual patch-clamp (MPC).
MPC experiments were conducted on human embroynic kidney (HEK) cells stably transfected with sodium channels were plated on coverslips. Cells were patch clamped using standard patch-clamp techniques (Hamill, O. P., A. Marty, et al., 1981 Pflugers Arch. 391:85-100). Once sufficient persistent current was established, buffer was introduced into the chamber at a constant flow rate of […] until the persistent current stabilized. Subsequent concentration-response experiments were conducted using this same flow rate. After application of the compound, current amplitude was monitored until equilibrium was established. The data recorded at equilibrium was normalized to the control current measured during perfusion with control buffer in the absence of a test compound. Adequate solution perfusion and gigohm seal stability were monitored throughout the experiment. The compound's antagonism of persistent or transient sodium currents is expressed as the IC5O of block for the respective current (see Table 1). Selectivity for block of the persistent current was calculated as the ratio of the IC5O for the transient current divided by the IC5O for the persistent current.

For data set [6], the system named is capsaicin-induced thermal hyperalgesia. Kind of data set: capsaicin-induced thermal hyperalgesia, plantar test. To be noted: doses 10 mg/kg and above, i.p., FIG. 10. It counts as in vivo, rat. The source says: A second method for evaluating of 1,2 substituted benzimidazoles on neuropathic pain was to determine their effects on capsaicin-induced thermal hyperalgesia in the rat.
Peripherally administered capsaicin (the active agent in chili peppers) induces an acute, local, inflammatory response through actions on nociceptive sensory nerve endings (‘pain fibers”). In rats, intraplantar injection of capsaicin produces decease in withdrawal latency to radiant heat (thermal hyperalgesia). This primary hyperalgesia, observed at the site of injury, is characterized by sensitization to thermal and mechanical stimulation. Primary hyperalgesia, especially that elicited by noxious thermal stimulus, is mediated, in part, by sensitization of C-fiber mechanoheat (polymodal) receptors (Kennis, 1982; Konietzny and Hensel, 1983; Simone, et al, 1987). […]
Intraplantar injection of capsaicin ([…]) was used to induce thermal hyperalgesia, as described previously(Gilchrist et al., 1996). […] For this test, hind paw withdrawal latencies (PWLs) to a noxious thermal stimulus were determined using the technique described by Hargreaves et al. (1988) using a plantar test apparatus (PAW
Thermal Analgesia Meter instrument Department of Anesthesiology, UCSD, San Diego, Calif.). Time to remove paw from heat source is measured and expressed as the paw withdrawal latency. […]
assessed 30 minutes after capsaicin challenge. […]

“Also recorded” adds a separate entry of the source.

For the compound `COc1cccc(OCc2nc3ccc(OCCC(C)C)cc3n2CC(C)C)c1` [Compound #2, 1-Isobutyl-2-(3-methoxy-phenoxymethyl)-6-(3-methyl-butoxy)-1H-benzimidazole], the “retinal function and structure as determined by ERG and histology” value in data set [1] (30 mg/kg i.p., 6 hour blue light exposure, FIG. 8) was “preserves retinal function and structure”. Besides, the “VEP latency (P2 peak)” value in data set [2] (50 mg/kg, FIG. 11 B, C) is “preserves VEP latency”. For the same compound, the “maximum clinical score versus vehicle” value in data set [2] (FIG. 11) is “significantly (P<0.01) average lower clinical score”. Besides, the “initial clinical sign of paralysis” value in data set [2] (dose of 30 mg/kg, FIG. 11) is “significantly reduces”. For the same compound, the Protected/Tested in data set [3] (dose 12.5 mg/kg) is 1/8; in data set [3] (dose 25.0 mg/kg), 3/8; in data set [3] (dose 50.0 mg/kg), 3/8; in data set [3] (dose 100.0 mg/kg), 5/8; in data set [3] (dose 200.0 mg/kg), 8/8. The Deaths in data set [3] (dose 12.5 mg/kg), in data set [3] (dose 25.0 mg/kg), in data set [3] (dose 50.0 mg/kg), in data set [3] (dose 100.0 mg/kg) and in data set [3] (dose 200.0 mg/kg) was 0 each time. The “EC50 in the 6 Hz seizure model” value in data set [3] (mice) is on record as 50.7 mg/kg. The “predicted TD50” value in data set [3] (mice) is given as over 500 mg/kg.
Turning to `C=C(C)Cn1c(COc2cccc(OC)c2)nc2ccccc21` [Compound #3, 1-[1-(2-methylprop-2-enyl)benzimidazol-2-ylmethoxy]-3-methoxybenzene], in data set [1] (100 mg/kg i.p., after blue light exposure, FIG. 6), the “retinal function as determined by ERG (b-wave and a-wave amplitude)” value is recorded as “significantly preserves retinal function”. Also, the “structural integrity of the retina by histology (ONL thickness, photoreceptor count)” value in data set [1] (100 mg/kg i.p., after blue light exposure, FIG. 7) is “preserved the structural integrity of the retina; also recorded: protects photoreceptors from blue-light induced toxicity”. In data set [4], the “bursting activity (spontaneous bursts of action potentials)” value is “bursting activity was reduced” and the “spontaneous discharge of action potentials” value was “potently decreased”. Also, the “allodynia with respect to vehicle injected controls” value in data set [5] (doses of 300 mg/kg, i.p., FIG. 9) is “significantly reduced”. The “reversal of mechanical allodynia” value in data set [5] (doses of 30 and 300 mg/kg, FIG. 9 legend) is “significantly reduced”. In addition, on Nav1.3 (FIG. 1), the “concentration blocking 50% of the persistent current” value is recorded as “low to submicromolar”. Also, the IC50 on Nav1.3 (FIG. 1, read-out: effective dose for blocking the transient current) is over 30 µM. Besides, the capsaicin-induced thermal hyperalgesia entry in data set [6] is “significantly reduces”.
